Consider 2 compounds from patent publication US11312720B2, “Hydrochloride salt of 2-((3R,4S)-1-(5-(4-chloro-3,5-difluorophenyl)-7-((2-fluoro-6-methylphenyl)(methyl)amino)pyrazolo[1,5-a]pyrimidine-2-carbonyl)-3-methoxypiperidin-4-yl) acetic acid and crystals thereof” (Eisai R&D Management Co., Ltd., priority 2018, dated 2022).

≈ marks a conversion by molar mass, not a printed value.

Series [1] in a line: Dissolution test by the paddle method in FaSSIF. Particulars: FaSSIF pH 6.5, 37° C., 50 rpm, about 10 mg in 100 mL. It counts as physicochemical. The method, then: The dissolution test was carried out by the paddle method using FaSSIF (an aqueous solution containing 3 mM sodium taurocholate, 0.75 mM lecithin, 29 mM sodium dihydrogen phosphate and 103 mM potassium chloride and adjusted to pH 6.5 by adding dropwise a sodium hydroxide aqueous solution) as the test solution. About 10 mg of the test compound was added to 100 mL of the test solution. Under the condition at 37° C. and 50 rpm, the test solution was stirred using a paddle. After the start of the stirring, 1 mL of the test solution was collected at each of the time points shown in Table 6 and filtered through a filter. A concentration of the test compound in the filtrate was measured by high-performance liquid chromatography (HPLC conditions were the same conditions described in Test Example 2).

Series [2] in a line: Solubility test (24 h shaking at room temperature, HPLC). It counts as physicochemical. The following applies: thermodynamic from solid. On the procedure: About 1 mg of the test compound was weighed into a test tube and 1 mL of a test solution was added. For the test solutions, a 0.1 M hydrochloric acid aqueous solution (pH 1) and Britton-Robinson buffers (pH 3, pH 5 and pH 7; ionic strength 0.3) were used. The test solution was shaken at room temperature for 24 hours and subsequently filtered through a filter. A concentration of the test compound in the filtrate was measured by high-performance liquid chromatography to evaluate solubility. […] Additionally, high-performance liquid chromatography (HPLC) conditions are shown below.
Column; YMC-Pack Pro C18, 4.6 mm×35 mm, 3 μm
Mobile phase A; water:acetonitrile:70% perchloric acid=900:100:1
Mobile phase B; water:acetonitrile:70% perchloric acid=100:900:1
Column temperature; 40° C.
Detection wavelength; 275 nm

The mark [3] stands for this setting: aqueous buffer, pH 3, Britton-Robinson buffer.
Setting [4] is: aqueous buffer, pH 5, Britton-Robinson buffer.
The mark [5] stands for this setting: aqueous buffer, pH 7, Britton-Robinson buffer.
The mark [6] stands for this setting: simulated gastric fluid, pH 1, 0.1M hydrochloric acid aqueous solution.

What is called solubility is how much of the substance goes into solution per volume. The low end stands for little dissolved substance, the high end for much dissolved substance. For `CO[C@H]1CN(C(=O)c2cc3nc(-c4cc(F)c(Cl)c(F)c4)cc(N(C)c4c(C)cccc4F)n3n2)CC[C@H]1CC(=O)O.Cl` [Example 1, 2-((3R,4S)-1-(5-(4-chloro-3,5-difluorophenyl)-7-((2-fluoro-6-methylphenyl)(methyl)amino)pyrazolo[1,5-a]pyrimidine-2-carbonyl)-3-methoxypiperidin-4-yl)acetic Acid Hydrochloride], the “Concentration of Test compound” value in series [1] (10 Min) was 30000 ng/mL; in series [1] (20 Min), 38000 ng/mL; in series [1] (24 Hours) it was 103000 ng/mL; in series [1] (30 Min), 46000 ng/mL; in series [1] (40 Min), 51000 ng/mL; in series [1] (60 Min) it was 61000 ng/mL. Also, the “Concentration of Test compound” value was 72000 ng/mL in series [1] (90 Min), 78000 ng/mL in series [1] (120 Min), 85000 ng/mL in series [1] (180 Min) and 87000 ng/mL in series [1] (240 Min). The solubility at 24 h in series [2] (setting [3]) is < 1 µg/mL; in series [2] (setting [4]) it was 1 µg/mL; in series [2] (setting [5]) it was > 1200 µg/mL; in series [2] (setting [6]) it was 4 µg/mL.

As to `CO[C@H]1CN(C(=O)c2cc3nc(-c4cc(F)c(Cl)c(F)c4)cc(N(C)c4c(C)cccc4F)n3n2)CC[C@H]1CC(=O)O` [Reference Example 4, 2-((3R,4S)-1-(5-(4-chloro-3,5-difluorophenyl)-7-((2-fluoro-6-methylphenyl)(methyl)amino)pyrazolo[1,5-a]pyrimidine-2-carbonyl)-3-methoxypiperidin-4-yl)acetic Acid], the “Concentration of Test compound” value in series [1] (10 Min) worked out at 4000 ng/mL; in series [1] (20 Min), 7000 ng/mL; in series [1] (24 Hours), 18000 ng/mL; in series [1] (30 Min), 8000 ng/mL; in series [1] (40 Min), 9000 ng/mL; in series [1] (60 Min), 10000 ng/mL. In addition, the “Concentration of Test compound” value is 11000 ng/mL in series [1] (90 Min), 11000 ng/mL in series [1] (120 Min), 12000 ng/mL in series [1] (180 Min) and 12000 ng/mL in series [1] (240 Min). For the same compound, the solubility at 24 h in series [2] (setting [3]) was < 1 µg/mL; in series [2] (setting [4]) it was < 1 µg/mL; in series [2] (setting [5]), 13 µg/mL (≈ 21.6 µM); in series [2] (setting [6]), < 1 µg/mL.
